Laboratory results published in patent US20240138411A1, “METHOD OF […] OF SUGARCANE” (CORTEVA AGRISCIENCE LLC, priority 2021, published 2024).

Test system: sugarcane
Test: Sugarcane flowering inhibition field trials, floral induction rated on UFSCar scale
Format: in vivo
Description: In order to explore the activity of florpyrauxifen as flowering inhibitor in sugarcane, field studies were carried out. Florpyrauxifen-benzyl was tested at rates from 2 to 20 grams active ingredient per hectare (g ai/ha) and compared to Ethrel® 720 (Bayer), the standard treatment. The flowering inhibition effect was assessed by checking the floral induction in sugarcane through the percentage scale recommended by UFSCar (Federal University of Sao Carlos, Sao Paulo, Brazil).
Four trials were carried out in sugarcane where florpyrauxifen-benzyl (Rinskor®), applied at a rate of 2 to 20 g ai/ha, was compared to ethephon (Ethrel® 720) applied at a rate of 475 g ai/ha. Control plots of untreated sugarcane were also evaluated. Rinskor® and Ethrel® 720 were diluted in water and a single application for each study (backpack sprayer) was performed delivering 50 L of spray solution per ha at the reproductive stage of sugarcane and at a maximum 150 days before harvest. The activity of florpyrauxifen-benzyl as a flowering inhibitor was measured via assessments (Scale of flowering inhibition—see chart 1) performed at 0, 14, 30, 45, 60, 75, 90, 120, 150 days after application, or up to harvest time. The assessments were measured in sugarcane stems, rating the flowering induction according to the UFSCar scale shown below. Significance of treatment effect was evaluated with F-approximate test (α=0.1) and least square means from different treatments were compared with Tukey's test.

COc1c(Cl)ccc(-c2nc(C(=O)OCc3ccccc3)c(Cl)c(N)c2F)c1F [Rinskor, florpyrauxifen-benzyl]
97.5%: % Referring to Scale (Table 2, 120 DAA, 20 g ai/ha) | Frequency 1/1 (0%) (Table 3, 90 DAA, 10 g ai/ha)
2.5%: Frequency 2/1 (15%) (Table 3, 90 DAA, 10 g ai/ha) | Frequency 3/1 (30%) (Table 3, 120 DAA, 5 g ai/ha) | Frequency 4/1 (50%) (Table 3, 120 DAA, 5 g ai/ha)
0.0%: Frequency 1/1 (0%) (Table 2, 120 DAA, 5 g ai/ha) | Frequency 2/1 (15%) (Table 2, 120 DAA, 5 g ai/ha) | Frequency 3/1 (30%) (Table 2, 120 DAA, 5 g ai/ha) | Frequency 4/1 (50%) (Table 2, 120 DAA, 5 g ai/ha) | Frequency 1/1 (0%) (Table 2, 120 DAA, 7 g ai/ha) | Frequency 2/1 (15%) (Table 2, 120 DAA, 7 g ai/ha) | Frequency 3/1 (30%) (Table 2, 120 DAA, 7 g ai/ha) | Frequency 4/1 (50%) (Table 2, 120 DAA, 7 g ai/ha) | Frequency 1/1 (0%) (Table 2, 120 DAA, 10 g ai/ha) | Frequency 2/1 (15%) (Table 2, 120 DAA, 10 g ai/ha) | Frequency 3/1 (30%) (Table 2, 120 DAA, 10 g ai/ha) | Frequency 4/1 (50%) (Table 2, 120 DAA, 10 g ai/ha) | Frequency 1/1 (0%) (Table 2, 120 DAA, 15 g ai/ha) | Frequency 2/1 (15%) (Table 2, 120 DAA, 15 g ai/ha) | Frequency 3/1 (30%) (Table 2, 120 DAA, 15 g ai/ha) | Frequency 4/1 (50%) (Table 2, 120 DAA, 15 g ai/ha) | Frequency 4/2 (80%) (Table 2, 120 DAA, 15 g ai/ha) | Frequency 1/1 (0%) (Table 2, 120 DAA, 20 g ai/ha) | Frequency 2/1 (15%) (Table 2, 120 DAA, 20 g ai/ha) | Frequency 3/1 (30%) (Table 2, 120 DAA, 20 g ai/ha) | Frequency 4/1 (50%) (Table 2, 120 DAA, 20 g ai/ha) | % Referring to Scale (Table 3, 90 DAA, 2 g ai/ha) | Frequency 2/1 (15%) (Table 3, 90 DAA, 2 g ai/ha) | Frequency 3/1 (30%) (Table 3, 90 DAA, 2 g ai/ha) | Frequency 4/1 (50%) (Table 3, 90 DAA, 2 g ai/ha) | Frequency 4/2 (80%) (Table 3, 90 DAA, 2 g ai/ha) | Frequency 4/3 (90%) (Table 3, 90 DAA, 2 g ai/ha) | Frequency 4/4 (100%) (Table 3, 90 DAA, 2 g ai/ha) | % Referring to Scale (Table 3, 90 DAA, 5 g ai/ha) | Frequency 2/1 (15%) (Table 3, 90 DAA, 5 g ai/ha) | Frequency 3/1 (30%) (Table 3, 90 DAA, 5 g ai/ha) | Frequency 4/1 (50%) (Table 3, 90 DAA, 5 g ai/ha) | Frequency 4/2 (80%) (Table 3, 90 DAA, 5 g ai/ha) | Frequency 4/3 (90%) (Table 3, 90 DAA, 5 g ai/ha) | Frequency 4/4 (100%) (Table 3, 90 DAA, 5 g ai/ha) | % Referring to Scale (Table 3, 90 DAA, 7 g ai/ha) | Frequency 2/1 (15%) (Table 3, 90 DAA, 7 g ai/ha) | Frequency 3/1 (30%) (Table 3, 90 DAA, 7 g ai/ha) | Frequency 4/1 (50%) (Table 3, 90 DAA, 7 g ai/ha) | Frequency 4/2 (80%) (Table 3, 90 DAA, 7 g ai/ha) | Frequency 4/3 (90%) (Table 3, 90 DAA, 7 g ai/ha) | Frequency 4/4 (100%) (Table 3, 90 DAA, 7 g ai/ha) | Frequency 3/1 (30%) (Table 3, 90 DAA, 10 g ai/ha) | Frequency 4/1 (50%) (Table 3, 90 DAA, 10 g ai/ha) | Frequency 4/2 (80%) (Table 3, 90 DAA, 10 g ai/ha) | Frequency 4/3 (90%) (Table 3, 90 DAA, 10 g ai/ha) | Frequency 4/4 (100%) (Table 3, 90 DAA, 10 g ai/ha) | % Referring to Scale (Table 3, 90 DAA, 15 g ai/ha) | Frequency 2/1 (15%) (Table 3, 90 DAA, 15 g ai/ha) | Frequency 3/1 (30%) (Table 3, 90 DAA, 15 g ai/ha) | Frequency 4/1 (50%) (Table 3, 90 DAA, 15 g ai/ha) | Frequency 4/2 (80%) (Table 3, 90 DAA, 15 g ai/ha) | Frequency 4/3 (90%) (Table 3, 90 DAA, 15 g ai/ha) | Frequency 4/4 (100%) (Table 3, 90 DAA, 15 g ai/ha) | % Referring to Scale (Table 3, 90 DAA, 20 g ai/ha) | Frequency 2/1 (15%) (Table 3, 90 DAA, 20 g ai/ha) | Frequency 3/1 (30%) (Table 3, 90 DAA, 20 g ai/ha) | Frequency 4/1 (50%) (Table 3, 90 DAA, 20 g ai/ha) | Frequency 4/2 (80%) (Table 3, 90 DAA, 20 g ai/ha) | Frequency 4/3 (90%) (Table 3, 90 DAA, 20 g ai/ha) | Frequency 4/4 (100%) (Table 3, 90 DAA, 20 g ai/ha) | Frequency 3/1 (30%) (Table 3, 120 DAA, 2 g ai/ha) | Frequency 4/1 (50%) (Table 3, 120 DAA, 2 g ai/ha) | Frequency 4/2 (80%) (Table 3, 120 DAA, 2 g ai/ha) | Frequency 4/3 (90%) (Table 3, 120 DAA, 2 g ai/ha) | Frequency 4/4 (100%) (Table 3, 120 DAA, 2 g ai/ha) | Frequency 4/2 (80%) (Table 3, 120 DAA, 5 g ai/ha) | Frequency 4/3 (90%) (Table 3, 120 DAA, 5 g ai/ha) | Frequency 4/4 (100%) (Table 3, 120 DAA, 5 g ai/ha) | Frequency 3/1 (30%) (Table 3, 120 DAA, 7 g ai/ha) | Frequency 4/1 (50%) (Table 3, 120 DAA, 7 g ai/ha) | Frequency 4/2 (80%) (Table 3, 120 DAA, 7 g ai/ha) | Frequency 4/3 (90%) (Table 3, 120 DAA, 7 g ai/ha) | Frequency 4/4 (100%) (Table 3, 120 DAA, 7 g ai/ha)
3.0%: % Referring to Scale (Table 3, 120 DAA, 7 g ai/ha)
37.5%: Frequency 2/1 (15%) (Table 3, 120 DAA, 2 g ai/ha)
15.0%: Frequency 4/3 (90%) (Table 2, 120 DAA, 15 g ai/ha)
5.0%: Frequency 4/2 (80%) (Table 2, 120 DAA, 7 g ai/ha)
82.5%: Frequency 4/4 (100%) (Table 2, 120 DAA, 20 g ai/ha)
32.5%: Frequency 2/1 (15%) (Table 3, 120 DAA, 5 g ai/ha)
77.5%: Frequency 4/4 (100%) (Table 2, 120 DAA, 10 g ai/ha)
100.0%: Frequency 1/1 (0%) (Table 3, 90 DAA, 2 g ai/ha) | Frequency 1/1 (0%) (Table 3, 90 DAA, 5 g ai/ha) | Frequency 1/1 (0%) (Table 3, 90 DAA, 7 g ai/ha) | Frequency 1/1 (0%) (Table 3, 90 DAA, 15 g ai/ha) | Frequency 1/1 (0%) (Table 3, 90 DAA, 20 g ai/ha)
75.0%: Frequency 4/4 (100%) (Table 2, 120 DAA, 7 g ai/ha)
98.5%: % Referring to Scale (Table 2, 120 DAA, 15 g ai/ha)
12.5%: Frequency 4/3 (90%) (Table 2, 120 DAA, 10 g ai/ha)
96.8%: % Referring to Scale (Table 2, 120 DAA, 10 g ai/ha)
10.0%: Frequency 4/2 (80%) (Table 2, 120 DAA, 10 g ai/ha) | Frequency 4/3 (90%) (Table 2, 120 DAA, 20 g ai/ha)
20.0%: Frequency 4/3 (90%) (Table 2, 120 DAA, 5 g ai/ha) | Frequency 4/3 (90%) (Table 2, 120 DAA, 7 g ai/ha) | Frequency 2/1 (15%) (Table 3, 120 DAA, 7 g ai/ha)
97.0%: % Referring to Scale (Table 2, 120 DAA, 7 g ai/ha)
5.6%: % Referring to Scale (Table 3, 120 DAA, 2 g ai/ha)
0.4%: % Referring to Scale (Table 3, 90 DAA, 10 g ai/ha)
62.5%: Frequency 1/1 (0%) (Table 3, 120 DAA, 2 g ai/ha) | Frequency 1/1 (0%) (Table 3, 120 DAA, 5 g ai/ha)
72.5%: Frequency 4/4 (100%) (Table 2, 120 DAA, 5 g ai/ha)
80.0%: Frequency 1/1 (0%) (Table 3, 120 DAA, 7 g ai/ha)
7.5%: Frequency 4/2 (80%) (Table 2, 120 DAA, 5 g ai/ha) | Frequency 4/2 (80%) (Table 2, 120 DAA, 20 g ai/ha)
4.1%: % Referring to Scale (Table 3, 120 DAA, 10 g ai/ha)
6.9%: % Referring to Scale (Table 3, 120 DAA, 5 g ai/ha)
85.0%: Frequency 4/4 (100%) (Table 2, 120 DAA, 15 g ai/ha)
